Results: US8063065B2, “Azaindazole compounds as CCR1 receptor antagonists” (Boehringer Ingelheim International GmbH, priority 2008, dated 2011)

The molecules below were run against T1, CCR1 (Homo sapiens, UniProt P32246) (assay: Method B: calcium flux in CCR1 transfected cells (Calcium 4 dye, […] FDSS6000), block of the CCR1/MIP-1α interaction). Details: Method B: Calcium 4 dye, MIP-1alpha at EC80.
T1 sequence (P32246 1-355): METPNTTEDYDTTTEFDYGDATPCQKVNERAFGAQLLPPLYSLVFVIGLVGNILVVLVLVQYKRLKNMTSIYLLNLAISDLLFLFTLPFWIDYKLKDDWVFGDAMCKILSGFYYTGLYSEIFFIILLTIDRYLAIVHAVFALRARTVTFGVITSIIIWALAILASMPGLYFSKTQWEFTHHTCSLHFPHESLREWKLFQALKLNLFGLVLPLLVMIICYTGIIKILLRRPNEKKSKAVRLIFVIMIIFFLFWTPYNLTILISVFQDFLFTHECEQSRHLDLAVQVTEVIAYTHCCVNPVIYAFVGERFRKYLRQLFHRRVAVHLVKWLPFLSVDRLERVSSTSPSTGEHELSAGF
Assay type: cell-based
How it was run: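 Non-adherent cells stably expressing CCR1 and G-alpha-16 were loaded with Calcium 4 dye plus probenecid for 1 h at room temperature. Compounds (top 3,000 nM, 4-fold, 10 doses, 1% DMSO) in HBSS/20 mM HEPES pH 7.4 were incubated 30 min at 37 C, then 30 min at room temperature. MIP-1α at EC80 was added and calcium flux read on FDSS6000.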

In order of falling IC50:
1. C[C@H](NC(=O)c1cncc2c1cnn2-c1ccc(F)cc1)c1ccnc(S(=O)(=O)CCCO)c1 [1-(4-Fluorophenyl)-1H-pyrazolo[3,4-c]pyridine-4-carboxylic acid {(S)-1-[2-(3-hydroxy-propane-1-sulfonyl)-pyridin-4-yl]-ethyl}-amide]  38 nM
2. CC[C@H](NC(=O)c1cncc2c1cnn2-c1ccc(F)cc1)c1nc(C(=O)OC)co1 [2-((S)-1-{[1-(4-Fluorophenyl)-1H-pyrazolo[3,4-c]pyridine-4-carbonyl]-amino}-propyl)-oxazole-4-carboxylic acid methyl ester]  38 nM
3. COC(=O)CCS(=O)(=O)c1cc([C@H](C)NC(=O)c2cncc3c2cnn3-c2ccc(F)cc2)ccn1 [3-[4-((S)-1-{[1-(4-Fluorophenyl)-1H-pyrazolo[3,4-c]pyridine-4-carbonyl]-amino}-ethyl)-pyridine-2-sulfonyl]-propionic acid methyl ester]  37 nM
4. COC(=O)CCS(=O)(=O)c1cccc([C@H](C)NC(=O)c2cncc3c2cnn3-c2ccc(F)cc2)n1 [3-[6-((S)-1-{[1-(4-Fluorophenyl)-1H-pyrazolo[3,4-c]pyridine-4-carbonyl]-amino}-ethyl)-pyridine-2-sulfonyl]-propionic acid methyl ester]  35 nM
5. CCC(NC(=O)c1cncc2c1cnn2-c1ccc(F)cc1)c1nc(C(=O)OC)c(C)o1 (centres unmarked) [2-(1-{[1-(4-Fluorophenyl)-1H-pyrazolo[3,4-c]pyridine-4-carbonyl]-amino}-propyl)-5-methyl-oxazole-4-carboxylic acid methyl ester]  27 nM
6. CCC(NC(=O)c1cncc2c1cnn2-c1ccc(F)cc1)C1CCCN(C(=O)OC(C)(C)C)C1 (centres unmarked) [3-(1-{[1-(4-Fluorophenyl)-1H-pyrazolo[3,4-c]pyridine-4-carbonyl]-amino}-propyl)-piperidine-1-carboxylic acid tert-butyl ester]  26 nM
7. CC[C@@H](NC(=O)c1cncc2c1cnn2-c1ccc(F)cc1)c1ccn(S(=O)(=O)c2ccc(C)cc2)c1 [1-(4-Fluorophenyl)-1H-pyrazolo[3,4-c]pyridine-4-carboxylic acid {(R)-1-[1-(toluene-4-sulfonyl)-1H-pyrrol-3-yl]-propyl}-amide]  23 nM
8. CC[C@@H](NC(=O)c1cncc2c1cnn2-c1ccc(F)cc1)c1cc(S(C)(=O)=O)cn1S(=O)(=O)c1ccc(C)cc1 [1-(4-Fluorophenyl)-1H-pyrazolo[3,4-c]pyridine-4-carboxylic acid {(R)-1-[4-methanesulfonyl-1-(toluene-4-sulfonyl)-1H-pyrrol-2-yl]-propyl}-amide]  16 nM
9. CC[C@H](NC(=O)c1cncc2c1cnn2-c1ccc(F)cc1)c1ccnc(N2CCS(=O)(=O)CC2)c1 [1-(4-Fluorophenyl)-1H-pyrazolo[3,4-c]pyridine-4-carboxylic acid {(S)-1-[2-(1,1-dioxo-1λ6-thiomorpholin-4-yl)-pyridin-4-yl]-propyl}-amide]  12 nM
10. CC[C@H](NC(=O)c1cncc2c1cnn2-c1ccc(F)cc1)c1ccnc(C(=O)O)c1 [4-((S)-1-{[1-(4-Fluorophenyl)-1H-pyrazolo[3,4-c]pyridine-4-carbonyl]-amino}-propyl)-pyridine-2-carboxylic acid]  12 nM
11. CC[C@H](NC(=O)c1cncc2c1cnn2-c1ccc(F)cc1)c1ccnc(N(C)C2CCNCC2)c1 [1-(4-Fluorophenyl)-1H-pyrazolo[3,4-c]pyridine-4-carboxylic acid {(S)-1-[2-(methyl-piperidin-4-yl-amino)-pyridin-4-yl]-propyl}-amide]  11 nM
12. CC[C@H](NC(=O)c1cncc2c1cnn2-c1ccc(F)cc1)c1ccnc(N2CCN(C)CC2)c1 [1-(4-Fluorophenyl)-1H-pyrazolo[3,4-c]pyridine-4-carboxylic acid {(S)-1-[2-(4-methyl-piperazin-1-yl)-pyridin-4-yl]-propyl}-amide]  8 nM
13. CC[C@H](NC(=O)c1cncc2c1cnn2-c1ccc(F)cc1)c1cncc(S(=O)(=O)CCC(=O)OC)c1 [3-[5-((S)-1-{[1-(4-Fluorophenyl)-1H-pyrazolo[3,4-c]pyridine-4-carbonyl]-amino}-propyl)-pyridine-3-sulfonyl]-propionic acid methyl ester]  6.3 nM
14. CC[C@H](NC(=O)c1cncc2c1cnn2-c1ccc(F)cc1)c1ccnc(N2CCN(C(C)=O)CC2)c1 [1-(4-Fluorophenyl)-1H-pyrazolo[3,4-c]pyridine-4-carboxylic acid {(S)-1-[2-(4-acetyl-piperazin-1-yl)-pyridin-4-yl]-propyl}-amide]  5 nM
15. CC[C@H](NC(=O)c1cncc2c1cnn2-c1ccc(F)cc1)c1ccnc(N(C)C(C)=O)c1 [1-(4-Fluorophenyl)-1H-pyrazolo[3,4-c]pyridine-4-carboxylic acid {(S)-1-[2-(acetyl-methyl-amino)-pyridin-4-yl]-propyl}-amide]  5 nM
16. CC[C@H](NC(=O)c1cncc2c1cnn2-c1ccc(F)cc1)c1nc(C(=O)OC)cs1 [2-((S)-1-{[1-(4-Fluorophenyl)-1H-pyrazolo[3,4-c]pyridine-4-carbonyl]-amino}-propyl)-thiazole-4-carboxylic acid methyl ester]  5 nM
17. CCC(NC(=O)c1cncc2c1cnn2-c1ccc(F)cc1)C1CCN(C(=O)OC(C)(C)C)CC1 (centres unmarked) [4-(1-{[1-(4-Fluorophenyl)-1H-pyrazolo[3,4-c]pyridine-4-carbonyl]-amino}-propyl)-piperidine-1-carboxylic acid tert-butyl ester]  4 nM
18. CC[C@H](NC(=O)c1cncc2c1cnn2-c1ccc(F)cc1)c1ccn(S(=O)(=O)c2ccc(C)cc2)c1 [1-(4-Fluorophenyl)-1H-pyrazolo[3,4-c]pyridine-4-carboxylic acid {(S)-1-[1-(toluene-4-sulfonyl)-1H-pyrrol-3-yl]-propyl}-amide]  3 nM
19. CC[C@H](NC(=O)c1cncc2c1cnn2-c1ccc(F)cc1)c1ccnc(-c2nnn[nH]2)c1 [1-(4-Fluorophenyl)-1H-pyrazolo[3,4-c]pyridine-4-carboxylic acid {(S)-1-[2-(1H-tetrazol-5-yl)-pyridin-4-yl]-propyl}-amide]  3 nM
20. CC[C@H](NC(=O)c1nccc2c1cnn2-c1ccc(F)cc1)c1ccnc(S(C)(=O)=O)c1 [1-(4-Fluorophenyl)-1H-pyrazolo[4,3-c]pyridine-4-carboxylic acid [(S)-1-(2-methanesulfonyl-pyridin-4-yl)-propyl]-amide]  3 nM
21. CC[C@H](NC(=O)c1cncc2c1cnn2-c1ccc(F)cc1)c1cccc(S(=O)(=O)CCC(=O)OC)n1 [3-[6-((S)-1-{[1-(4-Fluorophenyl)-1H-pyrazolo[3,4-c]pyridine-4-carbonyl]-amino}-propyl)-pyridine-2-sulfonyl]-propionic acid methyl ester]  3 nM
22. C[C@H](NC(=O)c1cncc2c1cnn2-c1ccc(F)cc1)c1cc(N(C)CC(N)=O)nc(S(C)(=O)=O)c1 [1-(4-Fluorophenyl)-1H-pyrazolo[3,4-c]pyridine-4-carboxylic acid {(S)-1-[2-(carbamoylmethyl-methyl-amino)-6-methanesulfonyl-pyridin-4-yl]-ethyl}-amide]  1 nM
23. CC[C@H](NC(=O)c1cncc2c1cnn2-c1ccc(F)cc1)c1ccnc(S(=O)(=O)CCC(=O)OC)c1 [3-[4-((S)-1-{[1-(4-Fluorophenyl)-1H-pyrazolo[3,4-c]pyridine-4-carbonyl]-amino}-propyl)-pyridine-2-sulfonyl]-propionic acid methyl ester]  1 nM
24. CC[C@H](NC(=O)c1cncc2c1cnn2-c1ccc(F)cc1)c1ccnc([S@@+](C)[O-])c1 [1-(4-Fluorophenyl)-1H-pyrazolo[3,4-c]pyridine-4-carboxylic acid {(S)-1-[2-((R)-methanesulfinyl)-pyridin-4-yl]-propyl}-amide]  0.6 nM
25. C[C@H](NC(=O)c1cncc2c1cnn2-c1ccc(F)cc1)c1cc(NCC(N)=O)nc(S(C)(=O)=O)c1 [1-(4-Fluorophenyl)-1H-pyrazolo[3,4-c]pyridine-4-carboxylic acid {(S)-1-[2-(carbamoylmethyl-amino)-6-methanesulfonyl-pyridin-4-yl]-ethyl}-amide]  0.6 nM
26. CC[C@H](NC(=O)c1cncc2c1cnn2-c1ccc(F)cc1)c1ccnc(C(C)(C)O)c1 [1-(4-Fluorophenyl)-1H-pyrazolo[3,4-c]pyridine-4-carboxylic acid {(S)-1-[2-(1-hydroxy-1-methyl-ethyl)-pyridin-4-yl]-propyl}-amide]  0.5 nM
27. CC[C@H](NC(=O)c1cncc2c1cnn2-c1ccc(F)cc1)c1ccnc([S@+](C)[O-])c1 [1-(4-Fluorophenyl)-1H-pyrazolo[3,4-c]pyridine-4-carboxylic acid {(S)-1-[2-((S)-methanesulfinyl)-pyridin-4-yl]-propyl}-amide]  0.5 nM
28. CC[C@H](NC(=O)c1cncc2c1cnn2-c1ccc(F)cc1)c1cc(NCC(N)=O)nc(S(C)(=O)=O)c1 [1-(4-Fluorophenyl)-1H-pyrazolo[3,4-c]pyridine-4-carboxylic acid {(S)-1-[2-(carbamoylmethyl-amino)-6-methanesulfonyl-pyridin-4-yl]-propyl}-amide]  0.4 nM
29. CC[C@H](NC(=O)c1cncc2c1cnn2-c1ccc(F)cc1)c1cc(N(C)CC(N)=O)nc(S(C)(=O)=O)c1 [1-(4-Fluorophenyl)-1H-pyrazolo[3,4-c]pyridine-4-carboxylic acid {(S)-1-[2-(carbamoylmethyl-methyl-amino)-6-methanesulfonyl-pyridin-4-yl]-propyl}-amide]  0.3 nM
